From US5767129A, “Substituted quinolines and isoquinolines as calcium channel blockers, their preparation and the use thereof” (Warner-Lambert Company, priority 1996, dated 1998)

Legend:
ischemia and pain = conditions: Bowersox et al. 1994; cited from earlier work
[1] = molecular target: T1, N-type calcium channels (IMR-32 cells) (Homo sapiens, UniProt Q00975); test: N-type Ca2+ channel blocking in IMR-32 cells using the fluorescent Ca2+ indicator Indo-1; type: cell-based; conditions: 5 μM nitrendipine to block L-type channels, KCl depolarization, 30° C., read-out: Inhibition of Ca^+2 Influx in IMR-32 Cells IC50
T1 construct: host or cells: IMR-32 cells, differentiated with dibutyryl cAMP and bromodeoxyuridine
Experimental: Measurement of N-type Ca2+ Channel Blocking Potencies of Compounds in IMR-32 Cells Using the Fluorescent Ca2+ Indicator Indo-1 IMR-32 cells are a human tumoral cell line of neural origin. […] Calcium flux into these cells may be induced by stimulation with elevated potassium concentrations. The L-channel component of calcium flux may be blocked by adding 5 μM nitrendipine. The remaining component of calcium entry into the IMR-32 cells is due to calcium flux through N-type calcium channels. Intracellular calcium concentrations are measured using the fluorescent calcium indicator Indo-1. The effect of drug concentration on calcium uptake is studied. Methods The IMR-32 cell line was obtained from the American Type Culture Collection (Rockville, Md.). Cells were grown in Eagle's Minimum Essential Medium with Earle's salts supplemented with 10% fetal bovine serum, 2 mM L-Gln and antibiotic/antimicotic mixture (Gibco). At approximately 80% confluency, differentiation was induced by the addition of 1 mM dibutyryl cAMP and 2.5 μM bromodeoxyuridine to the medium. After 7 to 13 days of differentiation, cells were detached using 0.5 mM EDTA and loaded with five 5 μM Indo-1 acetoxymethyl ester (Molecular Probes, Eugene, Oreg.) at 30° C. for 45 minutes. Loaded cells were washed twice, resuspended (~10^7 cells/mL) in assay buffer (10 mM HEPES/Tris pH 7.4 in Hank's Balanced Salt Solution without bicarbonate or phenol red containing 0.5% bovine serum albumin) and kept on ice until use. Fluorescence measurements were carried out in a Photon Technology International (PTI, South Brunswick, N.J.) Model RF-[…] spectrofluorometer with dual emission monochromators using excitation at 350 nm and emission at 400 and 490 nm. The instrument was equipped with a thermostatted cuvette holder with stirring capabilities as well as with a computer-controlled pump which allowed for reagent addition during measurement. Instrument control and data collection was done by PTI's OSCAR software running on an IBM compatible computer. […] At 20 seconds after the start of reading, cells were depolarized by the addition of 160 μL of stimulation solution (1M KCl, 68 mM CaCl2) to the cuvette via the computer-controlled pump. Ratio of dual emission signals (400 nm/490 nm), which is proportional to intracellular Ca^2+ concentration, was plotted against time, and the difference between maximal response after stimulation and basal value (before stimulation) was determined. […] IC50 values of test compounds were calculated by fitting a four-parameter logistic function to the data using the least squares method.

T1 sequence (Q00975 whole entry): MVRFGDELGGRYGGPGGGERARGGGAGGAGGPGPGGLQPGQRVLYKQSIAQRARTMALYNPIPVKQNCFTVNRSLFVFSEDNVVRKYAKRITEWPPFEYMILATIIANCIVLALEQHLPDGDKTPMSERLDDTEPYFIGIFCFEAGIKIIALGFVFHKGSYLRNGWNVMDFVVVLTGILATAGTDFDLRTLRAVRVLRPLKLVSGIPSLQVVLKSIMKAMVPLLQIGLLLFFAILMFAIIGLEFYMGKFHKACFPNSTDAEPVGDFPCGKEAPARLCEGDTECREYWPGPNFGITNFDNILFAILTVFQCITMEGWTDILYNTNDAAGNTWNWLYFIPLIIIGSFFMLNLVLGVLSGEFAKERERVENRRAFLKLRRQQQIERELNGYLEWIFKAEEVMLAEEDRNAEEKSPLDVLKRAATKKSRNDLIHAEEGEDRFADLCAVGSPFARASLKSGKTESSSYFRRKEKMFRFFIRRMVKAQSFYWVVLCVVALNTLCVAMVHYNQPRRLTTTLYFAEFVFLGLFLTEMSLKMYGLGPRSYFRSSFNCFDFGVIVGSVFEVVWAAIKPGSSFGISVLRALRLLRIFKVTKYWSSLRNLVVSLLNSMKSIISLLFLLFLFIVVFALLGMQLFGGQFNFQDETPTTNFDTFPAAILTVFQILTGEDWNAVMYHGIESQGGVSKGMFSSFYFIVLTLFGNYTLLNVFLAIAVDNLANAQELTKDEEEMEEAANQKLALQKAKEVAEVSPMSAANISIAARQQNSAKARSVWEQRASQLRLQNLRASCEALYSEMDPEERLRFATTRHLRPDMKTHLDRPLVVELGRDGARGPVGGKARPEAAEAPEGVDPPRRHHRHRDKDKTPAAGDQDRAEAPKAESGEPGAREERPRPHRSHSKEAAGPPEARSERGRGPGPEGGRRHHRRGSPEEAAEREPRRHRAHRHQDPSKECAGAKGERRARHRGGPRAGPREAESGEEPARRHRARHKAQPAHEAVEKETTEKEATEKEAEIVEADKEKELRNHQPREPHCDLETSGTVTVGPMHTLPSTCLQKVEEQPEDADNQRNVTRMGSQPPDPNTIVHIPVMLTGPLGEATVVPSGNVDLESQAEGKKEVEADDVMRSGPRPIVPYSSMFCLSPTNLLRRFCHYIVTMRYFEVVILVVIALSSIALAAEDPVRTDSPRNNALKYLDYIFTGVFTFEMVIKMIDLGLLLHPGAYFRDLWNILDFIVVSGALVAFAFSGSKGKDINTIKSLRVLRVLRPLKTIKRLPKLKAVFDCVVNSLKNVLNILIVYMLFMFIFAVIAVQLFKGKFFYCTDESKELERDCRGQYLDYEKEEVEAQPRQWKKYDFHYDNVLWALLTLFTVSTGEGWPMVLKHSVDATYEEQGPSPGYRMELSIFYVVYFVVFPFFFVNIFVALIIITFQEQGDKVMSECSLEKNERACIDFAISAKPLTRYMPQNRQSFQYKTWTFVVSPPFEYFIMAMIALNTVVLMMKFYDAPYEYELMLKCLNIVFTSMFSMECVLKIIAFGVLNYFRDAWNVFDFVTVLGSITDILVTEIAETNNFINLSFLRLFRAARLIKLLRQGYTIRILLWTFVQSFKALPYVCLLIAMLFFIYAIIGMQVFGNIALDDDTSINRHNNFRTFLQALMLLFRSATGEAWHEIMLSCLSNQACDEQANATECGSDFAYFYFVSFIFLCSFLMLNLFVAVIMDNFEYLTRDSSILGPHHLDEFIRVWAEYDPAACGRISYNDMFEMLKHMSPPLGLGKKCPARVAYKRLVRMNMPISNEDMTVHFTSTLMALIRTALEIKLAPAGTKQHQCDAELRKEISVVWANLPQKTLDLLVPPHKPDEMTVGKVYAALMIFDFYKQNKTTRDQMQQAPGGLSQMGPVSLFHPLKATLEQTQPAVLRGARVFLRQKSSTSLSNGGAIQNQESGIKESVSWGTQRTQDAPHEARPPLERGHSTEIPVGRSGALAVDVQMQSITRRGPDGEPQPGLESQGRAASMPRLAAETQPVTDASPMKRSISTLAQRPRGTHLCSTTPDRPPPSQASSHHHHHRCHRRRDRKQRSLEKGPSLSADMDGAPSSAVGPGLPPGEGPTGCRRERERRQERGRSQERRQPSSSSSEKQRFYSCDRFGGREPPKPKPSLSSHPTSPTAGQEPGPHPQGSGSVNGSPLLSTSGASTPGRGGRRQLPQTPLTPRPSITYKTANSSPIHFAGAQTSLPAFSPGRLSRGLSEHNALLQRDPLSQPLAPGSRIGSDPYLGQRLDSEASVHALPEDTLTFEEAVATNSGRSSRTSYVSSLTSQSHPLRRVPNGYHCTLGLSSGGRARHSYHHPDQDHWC

SMILES | IC50 [1] [nM] | activity in models of ischemia and pain (in words) (ischemia and pain)
CSCC[C@@H]1NC(=O)[C@H](CC(C)C)NC(=O)[C@H](CCCNC(=N)N)NC(=O)[C@H](CO)NC(=O)[C@@H]2CSSC[C@@H]3NC(=O)[C@H](CO)NC(=O)CNC(=O)[C@H]([C@@H](C)O)NC(=O)[C@H](CSSC[C@H](N)C(=O)N[C@@H](CCCCN)C(=O)NCC(=O)N[C@@H](CCCCN)C(=O)NCC(=O)N[C@@H](C)C(=O)N[C@@H](CCCCN)C(=O)N2)NC(=O)[C@H](CSSC[C@@H](C(N)=O)NC(=O)[C@H](CCCCN)NC(=O)CNC(=O)[C@H](CO)NC(=O)[C@H](CCCNC(=N)N)NC3=O)NC(=O)[C@H](CC(=O)O)NC(=O)[C@H](Cc2ccc(O)cc2)NC1=O [SNX-111] |  | demonstrated activity in a number of models of ischemia and pain
c1ccc(C(CCCN2CCc3c(ccc4c3OCN(C3CCCCC3)C4)C2)c2ccccc2)cc1 [Example 8, 2-Cyclohexyl-7-(4,4-diphenylbutyl)-2,3,5,6,7,8-hexahydro-1H-4-oxa-2,7-diazaphenanthrene] | 1100 | 
Oc1c(CNC2CCCCC2)ccc2c1CCN(CCCC(c1ccccc1)c1ccccc1)C2 [Example 7, 6-Cyclohexylaminomethyl-2-(4,4-diphenylbutyl)-1,2,3,4-tetrahydroisoquinolin-5-ol] | 1000 | 

Continued by falling IC50 [1], values first:

IC50 [1] [nM] | SMILES | activity in models of ischemia and pain (in words) (ischemia and pain)
1300 | Oc1c(CN2CCCCCC2)ccc2c1CCN(CCCC(c1ccc(F)cc1)c1ccc(F)cc1)C2 [Example 11, 6-Azepan-1-ylmethyl-2-[4,4-bis-(4-fluorophenyl)-butyl]-1,2,3,4-tetrahydroisoquinolin-5-ol] | 
820 | Oc1c(CN2CCCCCC2)ccc2c1CCN(CCCC(c1ccccc1)c1ccccc1)C2 [Example 6, 6-Azepan-1-ylmethyl-2-(4,4-diphenylbutyl)-1,2,3,4-tetrahydroisoquinolin-5-o] | 
